Patent publication US20100168054A1, “Functionalized Beta 1,6 Glucosamine Disaccharides and Process for Their Preparation” (OM PHARMA, priority 2006, published 2010)
Values joined by “and” are separate entries in the source; they are usually repeats but may differ in a detail not shown here. Identical values can stand only once. Marks after values point to notes of the source that are not given here.

Legend:
Assay type in all cases: in vivo, BALB/c ByJ mice
[1] = tested on: LACK-sensitized and challenged mice; assay: LACK-induced asthma model: eosinophils in bronchoalveolar lavages; details: for Eosino × 10^6, Mean ± SEM / Eosino × 10^6, individual mice: BAL; for Eosino × 10^6, individual mice: 1 mg/kg
Method: (§1) An example in vivo of the biological activity of two representative compounds of the invention is presented here. Using a mouse model of allergic asthma previously published (described in Julia et al. Immunity. 2002 February; 16(2):271-83), we aimed to investigate whether i.p. administrations of the synthetic molecules OM-174-DP and OM-174-MP-PD would inhibit airway inflammation in LACK-sensitized and challenged mice. To this goal, mice were treated either all along asthma induction (prophylactic model) or therapeutically (i.e. three times after animals have been sensitized to the allergen, the protein LACK). As read-outs, eosinophils were enumerated in bronchoalveolar lavages (BAL), and the well known markers of allergic asthma, namely the Th2 cytokines IL-4, IL-5, and IL-13 were quantified from the lungs. Moreover the level of plasmatic IgE was also reported.
(§2) OM-174-DP (i.p.)-treated LACK-sensitized and challenged mice (6 mice) Treatment and Schedule with Test or Control Article Experiment started at day 0. On days 0, 2, 3, 4, 7, 9, 10 11, and 12, mice of groups C, and D were treated i.p. with synthetic OM-174-DP (compound 1b) and OM-174-MP-PD (compound 19) respectively at the dose of 1 mg/Kg (20 μg per mouse). Mice of groups E were treated therapeutically i.p. on days 15, 17 and 19 at the dose of 1 mg/Kg (20 μg per mouse).
(§3) On day 1 and day 8, mice were sensitized i.p. with LACK/Alum. From day 16 to day 20, all the groups except group A mice were challenged with aerosols of a solution of LACK (0.15%). Group A received a saline solution (NaCl 0.9%) (group A) for 40 minutes instead.
For all the animals, Broncho-alveolar lavages (BAL) were performed. Two days after the last aerosol challenge, mice were bled and a canula was inserted into their trachea. Lungs were washed 3 times with 1 ml of warmed PBS. Cells were washed with PBS, and red blood cells were lysed using a red blood cell lysis buffer. Cells were further washed in PBS and counted. For differential BAL cell counts, cytospin preparations were made and stained with Wright/Giemsa. At least 400 cells were scored for each slide, and the numbers of lymphocytes, neutrophils, eosinophils, and macrophages/DC/pneumocytes (scored as other mononuclear cells) were determined by microscopic examination. Only eosinophilia is reported here.

[2] = tested on: LACK-sensitized and challenged mice; assay: LACK-induced asthma model: pulmonary cytokines
Method: as §1, §2, §3
To analyze pulmonary cytokine contents, lungs were harvested and left lungs were used to prepare protein extracts. 400 μl were recovered for each left lung. Cytokines (IL-4 and IL-13 in a first series of analyses, and then IL-5 and IFN-γ) were measured by multiplex analysis using FACSArray. The results, normalized for the protein content, are presented in pg/ml.

[3] = tested on: LACK-sensitized and challenged mice; assay: LACK-induced asthma model: LACK-specific IgE in sera; details: therapeutic
Method: as §1, §2, §3
To analyze specific IgE contents, mice of groups A, B, and G were bled by heart puncture two days after the last aerosol, and sera were prepared. LACK-specific IgE were measured by ELISA.

[4] = prophylactic, i.p. 1 mg/Kg on days 0, 2, 3, 4, 7, 9, 10, 11, 12
[5] = prophylactic, i.p. 1 mg/Kg, 1 mg/kg
[6] = therapeutic, i.p. 1 mg/Kg on days 15, 17, 19
[7] = therapeutic, i.p. 1 mg/Kg on days 15, 17, 19, 1 mg/kg

SMILES | Eosino × 10^6, Mean ± SEM [1, 4] | Eosino × 10^6, individual mice [1, 4] | times less BAL eosinophilia compared to positive asthmatic group (B) ([1]; prophylactic) | fold decrease of IL-4 in lungs compared to group B ([2]; prophylactic) | fold reduction of IL-13 compared to asthmatic mice ([2]; prophylactic) | Mean IL13 ([2]; prophylactic, i.p. 1 mg/Kg) | Mean IL-4 ([2]; prophylactic, i.p. 1 mg/Kg) | IL13 in lungs, individual mice [2, 5] | IL-4 in lungs, individual mice [2, 5] | other results
CCCCCCCCCCCC(=O)O[C@H](CCCCCCCCCCC)CC(=O)N[C@H]1[C@H](OC[C@H]2O[C@H](OCC(O)CO)[C@H](NC(=O)C[C@H](O)CCCCCCCCCCC)[C@@H](O)[C@@H]2O)O[C@H](CO)[C@@H](OP(=O)(O)O)[C@@H]1O (stereo partly drawn) [compound 19, 2,3-Dihydroxypropyl-2-Deoxy-6-O-[2-deoxy-4-O-(dihydroxyphosphoryl)-2-[(R)-3-dodecanoyloxytetradecanoylamino]-β-D-glucopyranosyl]-2-[(R)-3-hydroxytetradecanoylamino]-α-D-glucopyranoside] | 100411 ± 80738 × 10^6 | 33286 × 10^6 and 64010 × 10^6 and 47018 × 10^6 and 252294 × 10^6 and 82555 × 10^6 and 123305 × 10^6 | about 8 times | 4 fold | 3 fold | 16.62* pg/ml | 2.09** pg/ml | 12.08 pg/mL and 17.1 pg/mL and 8.59 pg/mL and 30.6 pg/mL and 16.14 pg/mL and 15.21 pg/mL | 1.01 pg/mL and 1.47 pg/mL and 0.91 pg/mL and 5.68 pg/mL and 1.79 pg/mL and 1.66 pg/mL | –
CCCCCCCCCCCC(=O)O[C@H](CCCCCCCCCCC)CC(=O)NC1C(OCC2OC(OP(=O)(O)O)C(NC(=O)C[C@H](O)CCCCCCCCCCC)C(O)C2O)OC(CO)C(OP(=O)(O)O)C1O (stereo partly drawn) [compound 1b, 2-Deoxy-6-O-[2-deoxy-4-O-(dihydroxyphosphoryl)-2-[(R)-3-dodecanoyloxytetradecanoylamino]-β-D-glucopyranosyl]-2-[(R)-3-hydroxytetradecanoylamino]-α-D-glucopyranosyl dihydrogenophosphate] | 109781 ± 139453 × 10^6 | 75359 × 10^6 and 385612 × 10^6 and 33412 × 10^6 and 54158 × 10^6 and 105352 × 10^6 and 4792 × 10^6 | about 8 times | 6 fold | 4 fold | 13.40* pg/ml | 1.50** pg/ml | 8.39 pg/mL and 25.39 pg/mL and 8.2 pg/mL and 24.29 pg/mL and 12.52 pg/mL and 1.59 pg/mL | 1.1 pg/mL and 3.33 pg/mL and 0.71 pg/mL and 2.43 pg/mL and 1.23 pg/mL and 0.17 pg/mL | Eosino × 10^6, Mean ± SEM [1, 6]: 13923 ± 7362 × 10^6; Eosino × 10^6, individual mice [1, 6]: 16744 × 10^6 and 3802 × 10^6 and 7411 × 10^6 and 21739 × 10^6 and 12500 × 10^6 and 21343 × 10^6; factor of decrease of eosinophil count compared to group B ([1]; therapeutic, three times): 64; fold reduction in IL-4 compared to group B ([2]; therapeutic): 4 fold; fold reduction in IL-13 compared to group B ([2]; therapeutic): 3 fold; fold reduction of IL-5 compared to untreated mice ([2]; therapeutic): 2.8 fold; reduction of IFN-γ levels compared to group B (in words) ([2]; therapeutic): reduced twofold; Mean IFN-γ [2, 6]: 1.38* pg/ml; Mean IL13 [2, 6]: 17.90* pg/ml; Mean IL-4 [2, 6]: 2.33** pg/ml; Mean IL-5 [2, 6]: 6.00** pg/ml; IFN-γ in lungs, individual mice [2, 7]: 1.62 pg/mL and 0.88 pg/mL and 0.94 pg/mL and 2.2 pg/mL and 0.81 pg/mL and 1.8 pg/mL; IL13 in lungs, individual mice [2, 7]: 20.35 pg/mL and 5.43 pg/mL and 9.93 pg/mL and 23.68 pg/mL and 21.99 pg/mL and 26.02 pg/mL; IL-4 in lungs, individual mice [2, 7]: 2.5 pg/ml and 1 pg/ml and 1.58 pg/ml and 3.48 pg/ml (2×) and 1.94 pg/ml; IL-5 in lungs, individual mice [2, 7]: 7.41 pg/mL and 1.06 pg/mL and 2.15 pg/mL and 9.23 pg/mL and 5.81 pg/mL and 10.33 pg/mL; Mean IgE ([3]; sera, i.p. 1 mg/Kg on days 15, 17, 19): 224.56* ng/ml; LACK-specific IgE, individual mice ([3]; sera, i.p. 1 mg/Kg on days 15, 17, 19, 1 mg/kg): 188 ng/mL and 159 ng/mL and 94 ng/mL and 382 ng/mL and 395 ng/mL and 129 ng/mL; fold less LACK-specific IgE compared to untreated LACK challenged mice [3]: 2.6 fold
